The text below walks through data of paper PMC8115037, “Paracoccus denitrificans: a genetically tractable model system for studying respiratory complex I” (Scientific Reports, 2021).

Experiment [1] addresses T1, complex I (NADH:ubiquinone oxidoreductase), Pd-CI (Paracoccus denitrificans, UniProt A1B487+A1B495+A1B497).
T1 construct: gene nuoD; intact purified complex I, His6-tag on C-terminus of Nqo5 (Pd-Nqo5^His6); with multisubunit complex (14 core Nqo subunits plus PdNUMM, PdNUYM, PdN7BM)
The experiment is described as follows: NADH:DQ oxidoreductase assay, detergent-solubilized purified enzyme ([…] in proteoliposomes). In kind it is biochemical.

Experiment [2] has as its target T1, complex I (NADH:ubiquinone oxidoreductase), Pd-CI. Described as above. The experiment is classed as biochemical. This is another data set of the same source.

Where two headings read alike, the source gives them in different places.

T1 sequence (A1B496 entry or part of it): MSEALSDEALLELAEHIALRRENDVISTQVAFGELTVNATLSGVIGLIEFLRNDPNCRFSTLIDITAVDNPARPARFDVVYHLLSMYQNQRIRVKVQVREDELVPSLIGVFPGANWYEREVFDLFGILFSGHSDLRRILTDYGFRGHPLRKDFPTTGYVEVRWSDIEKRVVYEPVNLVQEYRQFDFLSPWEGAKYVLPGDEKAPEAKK
T1 sequence (A1B495 whole entry): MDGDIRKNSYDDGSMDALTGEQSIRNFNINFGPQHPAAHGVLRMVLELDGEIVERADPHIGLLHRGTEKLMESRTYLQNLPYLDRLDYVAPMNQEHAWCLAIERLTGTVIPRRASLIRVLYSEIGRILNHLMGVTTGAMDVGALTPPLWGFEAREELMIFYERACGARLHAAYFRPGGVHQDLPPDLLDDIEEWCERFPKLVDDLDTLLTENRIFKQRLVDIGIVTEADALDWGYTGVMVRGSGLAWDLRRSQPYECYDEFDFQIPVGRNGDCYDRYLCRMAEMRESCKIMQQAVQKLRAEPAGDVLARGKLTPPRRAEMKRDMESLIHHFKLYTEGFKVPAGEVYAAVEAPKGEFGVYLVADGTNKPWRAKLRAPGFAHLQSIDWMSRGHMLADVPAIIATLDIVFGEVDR
T1 sequence (A1B487 whole entry): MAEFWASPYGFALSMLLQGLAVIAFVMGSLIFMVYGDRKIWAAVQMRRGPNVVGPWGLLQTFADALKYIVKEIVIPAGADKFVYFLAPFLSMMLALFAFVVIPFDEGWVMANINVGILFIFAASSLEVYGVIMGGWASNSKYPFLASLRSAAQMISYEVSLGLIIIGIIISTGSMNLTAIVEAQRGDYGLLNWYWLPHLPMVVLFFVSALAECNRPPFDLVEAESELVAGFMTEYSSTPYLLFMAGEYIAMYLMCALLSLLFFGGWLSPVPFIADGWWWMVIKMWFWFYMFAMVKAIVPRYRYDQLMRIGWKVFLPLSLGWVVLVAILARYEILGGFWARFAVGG
T1 sequence (A1B498 entry or part of it, further chain): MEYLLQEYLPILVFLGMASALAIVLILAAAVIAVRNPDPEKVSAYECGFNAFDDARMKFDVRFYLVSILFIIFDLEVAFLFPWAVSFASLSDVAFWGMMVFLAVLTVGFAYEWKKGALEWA
T1 sequence (A1B497 whole entry): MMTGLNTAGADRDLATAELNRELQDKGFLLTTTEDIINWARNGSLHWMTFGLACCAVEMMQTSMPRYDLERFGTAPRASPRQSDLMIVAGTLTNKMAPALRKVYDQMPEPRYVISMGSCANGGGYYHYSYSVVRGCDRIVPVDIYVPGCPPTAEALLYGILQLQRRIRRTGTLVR

`C/C=C(\C)[C@H](O)[C@H](C)/C=C(C)/C=C/C/C(C)=C/Cc1nc(OC)c(OC)c(O)c1C` [piericidin A] displayed an IC50 in experiment [1] of 0.072 ± 0.007 µM.

In experiment [2], `C=C(C)[C@H]1Cc2c(ccc3c2O[C@@H]2COc4cc(OC)c(OC)cc4[C@@H]2C3=O)O1` [rotenone] gave an IC50 of 2.23 ± 0.185 µM.
